Assay results as given in ChEMBL document CHEMBL5523723, “G Protein-Coupled Estrogen Receptor-Mediated Anti-Inflammatory and Mucosal Healing Activity of a Trimethylpyridinol Analogue in Inflammatory Bowel Disease” (J Med Chem, 2024).

Assays:
[1] = Cmax in Sprague-Dawley rat at 5 mg/kg, po by LC-MS analysis; format: ADME, organism-based; conditions: in vivo
[2] = Acute toxicity in ICR mouse assessed as change in liver weight at 30 to 300 mg/kg, po measured every other day for 14 days […]; format: organism-based; conditions: in vivo, 336 h, dose 30-300 mg/kg, time 14 day
CYP3A4 = CYP3A4 (Homo sapiens, UniProt P08684); experiment: Inhibition of CYP3A4 in human liver microsomes assessed as remaining activity at 10 uM using midazolam as substrate preincubated for 5 mins followed by NADPH generating system addition for 15 mins by LC-MS/MS method relative to control; format: ADME, Microsome; conditions: probe midazolam, time 20 min, read-out: Activity
HT-29 = experiment: Induction of apoptosis in human HT-29 cells assessed as viable cells at 1 uM incubated for 24 hrs by Annexin V FITC/PI staining based flow cytometry analysis ( Rvb = 99 +/- 0.1%); format: functional; conditions: read-out: Activity
[3] = Acute toxicity in ICR mouse assessed as change in histology of heart at 30 to 300 mg/kg, po measured every other day for 14 days by H and E staining based assay; format: organism-based; conditions: in vivo, 336 h, dose 30-300 mg/kg, time 14 day
hERG = hERG (Homo sapiens, UniProt Q12809); experiment: Inhibition of hERG expressed in HEK cells assessed as remaining activity at 10 uM by automated patch clamp method relative to control; format: toxicity, cell-based; conditions: HEK cells expressing hERG, read-out: Activity
[4] = Oral bioavailability in Sprague-Dawley rat at 5 mg/kg by LC-MS analysis; format: ADME, organism-based; conditions: in vivo
[5] = Acute toxicity in ICR mouse assessed as change in food intake at 30 to 300 mg/kg, po measured every other day for 14 days; format: organism-based; conditions: in vivo, 336 h, dose 30-300 mg/kg, time 14 day
[6] = Mean residence time in Sprague-Dawley rat at 5 mg/kg, po by LC-MS analysis; format: ADME, organism-based; conditions: in vivo
[7] = Acute toxicity in ICR mouse assessed as change in histology of liver at 30 to 300 mg/kg, po measured every other day for 14 days by H and E staining based assay; format: organism-based; conditions: in vivo, 336 h, dose 30-300 mg/kg, time 14 day
[8] = Acute toxicity in ICR mouse assessed as abnormal behavior at 30 to 300 mg/kg, po measured every other day for 14 days; format: organism-based; conditions: in vivo, 336 h, dose 30-300 mg/kg, time 14 day
[9] = Mean residence time in Sprague-Dawley rat at 1 mg/kg, po by LC-MS analysis; format: ADME, organism-based; conditions: in vivo
[10] = Acute toxicity in ICR mouse assessed as change in kidney weight at 30 to 300 mg/kg, po measured every other day for 14 days […]; format: organism-based; conditions: in vivo, 336 h, dose 30-300 mg/kg, time 14 day
[11] = target: Prostaglandin G/H synthase 1 (Homo sapiens, UniProt P23219); experiment: Inhibition of COX-1 (unknown origin)
[12] = AUC(0 to t) in Sprague-Dawley rat at 1 mg/kg, iv by LC-MS analysis; format: ADME, organism-based; conditions: in vivo
U-937 = experiment: Induction of apoptosis in human U-937 cells assessed as viable cells at 1 uM incubated for 24 hrs by Annexin V FITC/PI staining based flow cytometry analysis ( Rvb = 95.2 +/- 0.4%); format: functional; conditions: read-out: Activity
[13] = Volume of distribution at steady state in Sprague-Dawley rat at 1 mg/kg, iv by LC-MS analysis; format: ADME, organism-based; conditions: in vivo, read-out: Vdss
[14] = target: G-protein coupled estrogen receptor 1 (Homo sapiens, UniProt Q99527); experiment: Binding affinity to human GPER by SPR method
CYP1A2 = target: T1, CYP1A2 (Homo sapiens, UniProt P05177); experiment: Inhibition of CYP1A2 in human liver microsomes assessed as remaining activity at 10 uM using phenacetin as substrate preincubated for 5 mins followed by NADPH generating system addition for 15 mins by LC-MS/MS method relative to control; format: ADME, Microsome; conditions: probe phenacetin, time 20 min, read-out: Activity
T1 sequence (P05177 whole entry): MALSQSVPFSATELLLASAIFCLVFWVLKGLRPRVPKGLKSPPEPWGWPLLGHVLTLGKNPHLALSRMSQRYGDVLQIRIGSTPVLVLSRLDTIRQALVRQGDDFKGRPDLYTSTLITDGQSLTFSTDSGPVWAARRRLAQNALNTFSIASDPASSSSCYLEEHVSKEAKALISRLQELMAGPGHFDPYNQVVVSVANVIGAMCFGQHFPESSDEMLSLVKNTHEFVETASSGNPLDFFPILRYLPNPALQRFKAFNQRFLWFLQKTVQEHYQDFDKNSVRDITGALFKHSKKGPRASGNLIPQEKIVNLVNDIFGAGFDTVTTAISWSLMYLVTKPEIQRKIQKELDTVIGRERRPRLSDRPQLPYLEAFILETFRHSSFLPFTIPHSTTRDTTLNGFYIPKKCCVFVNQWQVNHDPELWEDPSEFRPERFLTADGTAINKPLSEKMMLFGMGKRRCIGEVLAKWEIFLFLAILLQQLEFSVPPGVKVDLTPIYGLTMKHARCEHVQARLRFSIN

[15] = Half life in Sprague-Dawley rat at 1 mg/kg, po by LC-MS analysis; format: ADME, organism-based; conditions: in vivo
[16] = Cmax in Sprague-Dawley rat at 1 mg/kg, po by LC-MS analysis; format: ADME, organism-based; conditions: in vivo
[17] = Acute toxicity in ICR mouse assessed as digestive disorder at 30 to 300 mg/kg, po measured every other day for 14 days; format: organism-based; conditions: in vivo, 336 h, dose 30-300 mg/kg, time 14 day
[18] = Acute toxicity in ICR mouse assessed as change in histology of kidney at 30 to 300 mg/kg, po measured every other day for 14 days by H and E staining based assay; format: organism-based; conditions: in vivo, 336 h, dose 30-300 mg/kg, time 14 day
[19] = Acute toxicity in ICR mouse assessed as change in heart weight at 30 to 300 mg/kg, po measured every other day for 14 days […]; format: organism-based; conditions: in vivo, 336 h, dose 30-300 mg/kg, time 14 day
[20] = Half life in Sprague-Dawley rat at 5 mg/kg, po by LC-MS analysis; format: ADME, organism-based; conditions: in vivo
[21] = target: T2, Amine oxidase [flavin-containing] B (Homo sapiens, UniProt P27338); experiment: Inhibition of MAOB (unknown origin)
T2 sequence (P27338 whole entry): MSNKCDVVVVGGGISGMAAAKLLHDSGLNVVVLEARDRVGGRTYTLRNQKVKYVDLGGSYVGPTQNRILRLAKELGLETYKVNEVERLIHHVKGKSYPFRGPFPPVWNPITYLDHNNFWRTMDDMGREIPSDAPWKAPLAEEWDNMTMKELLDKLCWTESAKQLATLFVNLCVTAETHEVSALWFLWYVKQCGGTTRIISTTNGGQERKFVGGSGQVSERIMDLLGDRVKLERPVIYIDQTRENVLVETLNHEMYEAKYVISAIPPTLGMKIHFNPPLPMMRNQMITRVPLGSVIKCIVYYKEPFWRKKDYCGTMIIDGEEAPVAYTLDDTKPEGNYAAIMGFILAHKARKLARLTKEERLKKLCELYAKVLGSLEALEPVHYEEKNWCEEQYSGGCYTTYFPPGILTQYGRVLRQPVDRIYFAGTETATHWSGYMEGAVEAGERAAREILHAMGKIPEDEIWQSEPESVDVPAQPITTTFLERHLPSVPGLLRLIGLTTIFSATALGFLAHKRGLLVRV

[22] = Cmax in Sprague-Dawley rat at 1 mg/kg, iv by LC-MS analysis; format: ADME, organism-based; conditions: in vivo

Chain of G-protein coupled estrogen receptor 1 (Q99527 whole entry): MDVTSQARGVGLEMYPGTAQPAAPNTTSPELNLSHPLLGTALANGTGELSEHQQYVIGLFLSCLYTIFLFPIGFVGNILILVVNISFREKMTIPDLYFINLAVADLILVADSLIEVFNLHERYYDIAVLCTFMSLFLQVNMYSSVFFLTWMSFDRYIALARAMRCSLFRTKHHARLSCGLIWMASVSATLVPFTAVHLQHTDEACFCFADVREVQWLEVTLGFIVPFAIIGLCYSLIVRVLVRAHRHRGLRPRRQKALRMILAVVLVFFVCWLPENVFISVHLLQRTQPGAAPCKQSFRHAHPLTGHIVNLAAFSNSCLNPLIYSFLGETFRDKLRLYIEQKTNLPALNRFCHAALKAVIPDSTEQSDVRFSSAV
Chain of CYP3A4 (P08684 whole entry): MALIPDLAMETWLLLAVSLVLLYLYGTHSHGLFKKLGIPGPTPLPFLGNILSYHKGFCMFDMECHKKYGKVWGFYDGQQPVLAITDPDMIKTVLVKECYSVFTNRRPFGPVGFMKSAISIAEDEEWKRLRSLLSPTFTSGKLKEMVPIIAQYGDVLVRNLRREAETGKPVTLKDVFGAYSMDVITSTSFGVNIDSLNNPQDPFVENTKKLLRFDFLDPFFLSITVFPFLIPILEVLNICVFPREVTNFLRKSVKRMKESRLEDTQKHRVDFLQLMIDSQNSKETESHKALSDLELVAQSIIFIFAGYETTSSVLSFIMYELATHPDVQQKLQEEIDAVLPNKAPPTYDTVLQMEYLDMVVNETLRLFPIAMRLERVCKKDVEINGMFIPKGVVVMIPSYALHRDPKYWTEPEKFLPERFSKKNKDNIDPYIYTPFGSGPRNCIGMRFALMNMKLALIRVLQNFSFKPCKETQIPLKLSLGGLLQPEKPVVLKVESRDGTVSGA
Chain of hERG (Q12809 whole entry): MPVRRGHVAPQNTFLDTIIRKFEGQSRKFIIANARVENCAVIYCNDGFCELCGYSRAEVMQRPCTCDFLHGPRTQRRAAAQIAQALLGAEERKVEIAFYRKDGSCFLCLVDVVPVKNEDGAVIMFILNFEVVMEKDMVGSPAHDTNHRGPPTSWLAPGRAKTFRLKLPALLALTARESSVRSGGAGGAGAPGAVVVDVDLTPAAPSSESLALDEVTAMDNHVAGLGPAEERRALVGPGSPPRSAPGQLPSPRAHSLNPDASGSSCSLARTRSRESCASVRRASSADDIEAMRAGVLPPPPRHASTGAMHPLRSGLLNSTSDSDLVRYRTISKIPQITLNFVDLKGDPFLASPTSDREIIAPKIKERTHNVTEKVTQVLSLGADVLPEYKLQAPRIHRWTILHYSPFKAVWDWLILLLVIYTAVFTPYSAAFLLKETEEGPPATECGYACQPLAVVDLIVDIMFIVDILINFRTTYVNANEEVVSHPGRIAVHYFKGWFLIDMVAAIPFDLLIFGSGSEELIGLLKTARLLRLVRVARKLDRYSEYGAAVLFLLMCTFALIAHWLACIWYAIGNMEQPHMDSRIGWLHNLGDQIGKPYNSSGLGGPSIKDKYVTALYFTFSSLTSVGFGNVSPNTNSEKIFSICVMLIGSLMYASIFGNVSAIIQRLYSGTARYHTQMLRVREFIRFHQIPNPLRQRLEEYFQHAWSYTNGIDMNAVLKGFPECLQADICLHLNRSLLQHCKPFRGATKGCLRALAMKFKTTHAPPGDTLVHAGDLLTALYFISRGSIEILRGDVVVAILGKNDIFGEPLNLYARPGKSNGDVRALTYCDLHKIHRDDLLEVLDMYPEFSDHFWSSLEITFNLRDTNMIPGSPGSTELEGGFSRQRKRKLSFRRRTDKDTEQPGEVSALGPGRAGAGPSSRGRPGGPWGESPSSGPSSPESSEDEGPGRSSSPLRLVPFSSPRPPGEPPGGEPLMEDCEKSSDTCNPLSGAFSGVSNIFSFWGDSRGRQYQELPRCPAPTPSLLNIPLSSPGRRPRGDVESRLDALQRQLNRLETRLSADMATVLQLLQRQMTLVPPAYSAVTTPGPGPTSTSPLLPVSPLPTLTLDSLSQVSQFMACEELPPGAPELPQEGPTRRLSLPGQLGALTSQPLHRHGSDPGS
Chain of Prostaglandin G/H synthase 1 (P23219 whole entry): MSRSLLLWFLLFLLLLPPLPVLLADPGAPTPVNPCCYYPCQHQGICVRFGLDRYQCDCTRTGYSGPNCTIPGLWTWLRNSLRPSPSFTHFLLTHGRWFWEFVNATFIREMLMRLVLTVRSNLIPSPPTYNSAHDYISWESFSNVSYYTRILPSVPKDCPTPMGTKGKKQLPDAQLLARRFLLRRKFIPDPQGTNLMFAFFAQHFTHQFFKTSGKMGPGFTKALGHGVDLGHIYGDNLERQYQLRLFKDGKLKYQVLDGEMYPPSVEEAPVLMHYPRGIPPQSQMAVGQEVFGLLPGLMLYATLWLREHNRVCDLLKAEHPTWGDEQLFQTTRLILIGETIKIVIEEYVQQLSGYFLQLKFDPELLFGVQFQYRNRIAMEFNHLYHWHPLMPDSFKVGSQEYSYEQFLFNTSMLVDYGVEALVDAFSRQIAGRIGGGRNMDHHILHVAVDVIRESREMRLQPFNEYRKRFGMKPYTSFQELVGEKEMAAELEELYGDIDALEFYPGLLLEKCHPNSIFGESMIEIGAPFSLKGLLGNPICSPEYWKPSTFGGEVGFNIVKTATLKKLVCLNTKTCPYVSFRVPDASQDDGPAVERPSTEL

Q: For Cc1nc(NC(=O)c2sc3cc(F)ccc3c2Cl)c(C)c(C)c1O, which Cmax [1] is on record?
A: 760 ng/mL

Q: What about the Activity [2] of the same compound?
A: Non-Toxic

Q: And the activity at 0.25 h, 10 µM (CYP3A4)?
A: 89.9%

Q: And the viability at 1 µM (HT-29)?
A: 98.8%

Q: And the Activity [3]?
A: Non-Toxic

Q: And the activity at 10 µM (hERG)?
A: 91.7%

Q: What about the F [4] of the same compound?
A: 36.7%

Q: And the Activity [5]?
A: Non-Toxic

Q: What about the MRT [6] of the same compound?
A: 5 h

Q: What about the Activity [7] of the same compound?
A: Non-Toxic

Q: What about the Activity [8] of the same compound?
A: Non-Toxic

Q: And the MRT [9]?
A: 5.7 h

Q: And the Activity [10]?
A: Non-Toxic

Q: And the IC50 [11]?
A: 800 nM

Q: What about the AUCt [12] of the same compound?
A: 10006.6 ng·h/mL

Q: What about the viability at 1 µM (U-937) of the same compound?
A: 95.4%

Q: And the Vd [13]?
A: 1.3 L/kg

Q: And the Kd [14]?
A: 23.7 nM

Q: And the activity at 0.25 h, 10 µM (CYP1A2)?
A: 89.2%

Q: What about the half-life [15] of the same compound?
A: 3.8 h

Q: What about the Cmax [16] of the same compound?
A: 51.9 ng/mL

Q: What about the Activity [17] of the same compound?
A: Non-Toxic

Q: What about the Activity [18] of the same compound?
A: Non-Toxic

Q: What about the Activity [19] of the same compound?
A: Non-Toxic

Q: What about the half-life [20] of the same compound?
A: 3.3 h

Q: What about the IC50 [21] of the same compound?
A: 54 nM

Q: What about the Cmax [22] of the same compound?
A: 1880 ng/mL
